Results taken from patent US4255183A, “Substituted phenyl urea and herbicides for use in paddy field” (Hokko Chemical Industry Co., Ltd., priority 1977, dated 1981).
Like-named read-outs stand apart in the source and are kept apart here.

Experiments:
[1] = system: Bulrush; assay: Test Example 5: Wagner pot test, herbicidal effect on Bulrush; type: in vivo
Experimental: (§1) In a 1/7500 are Wagner pot, sieved paddy field soil (alluvial soil) was charged. Thereafter, in the center portion of the pot, 2 roots of paddy rice (Asahi species) at the 2- to 3-leaf stage were transplanted and 20 seeds of Bulrush per pot were seeded in the surface of the above soil. The pot was submerged at the depth of about 2 cm. The other Dopatrium junceum and umbrella plant were generated naturally. After seeding, when each of the weeds reached the same leaf age as defined in Table 5 given herein, a predetermined concentration of the emulsion prepared according to Example 4 was applied dropwise on the surface of the pot. The test was carried out by repeating the same test three times per area and the results were determined 20 days after the application of the chemicals with regard to the herbicidal effect and chemical injury on paddy rice on the basis of the evaluation index as shown below.
(§2) As the comparative chemicals Molinate, Benthiocarb and DCMU, those commercially available were used.
(§3) In the above table, the inhibition rate was calculated according to the method as described in Test Example 1.

[2] = system: paddy rice; assay: Test Example 4: field test in submerged directly seeded paddy field, paddy rice; type: in vivo, paddy rice (Asahi species); conditions: Oryza sativa, 504 h; 300 g/10 are, emulsion, 2- to 3-leaf stage, 21 days after application
Experimental: (§4) In a Wagner pot of 1/500 are, paddy field soil (alluvial soil) was placed and 50 seeds of Echinochloa crus-galli var. oryzicola and 30 seeds of paddy rice were seeded in the surface layer of said soil and the submerging depth was kept at about 1 cm. When Echinochloa crus-galli var. oryzicola reached at the one leaf stage and 5-leaf stage, the emulsion of a predetermined concentration, prepared according to Example 4 was added dropwise. After 30 days from the treatment with the chemical, dry weights of Echinochloa crus-galli var. oryzicola and paddy rice were measured and the inhibition rate was calculated with reference to untreated area. [formula]
(§5) In a 10 m^2 paddy field, 30 g of Echinochloa crus-galli var. oryzicola seeds were seeded at the time of puddling and the depth of submerging was kept at 3-5 cm. 3 Days after the puddling, 50 g of paddy rice at the emergence stage (Asahi species) were seeded. When Echinochloa crus-galli var. oryzicola and paddy rice reached a 2- to 3-leaf stage, a predetermined dose of the emulsion prepared according to Example 4 was applied uniformly by means of a manual spraying machine. Test results were examined 21 days after the application of the chemicals in the similar manner as in Test Example 1.
(§6) The comparative chemical 1 used was that commercially available and the comparative chemical 2 used was prepared according to Example 4.

[3] = system: paddy rice; assay: Test Example 5: Wagner pot test, chemical injury on paddy rice; type: in vivo, paddy rice (Asahi species); note: key: 5: Completely killed; 4: Considerably injured; 3: Moderately injured; 2: A little injured; 1: Slightly injured; 0: Not injured
Experimental: as §1, §2

[4] = system: Umbrella plant; assay: Test Example 5: Wagner pot test, herbicidal effect on umbrella plant; type: in vivo; conditions: 20 days after application
Experimental: as §1, §2, §3

[5] = system: paddy rice; assay: whole plant or invertebrate; type: in vivo, paddy rice (Asahi species); conditions: Oryza sativa, 720 h
Experimental: as §4
(§7) In a concrete pot of 1/400 are (50 cm×50 cm), paddy field soil (alluvial soil) was placed and 200 seeds of Echinochloa crus-galli var. oryzicola were seeded in 10 surface layer of said soil and the soil was submerged at about 3 cm depth. Before emergence of Echinochloa crus-galli var. oryzicola, paddy rice at 2.5-leaf stage (Asahi species) was transplanted at the rate of 8 stubs per pot, planting 3 seedlings per stub. At the one-leaf stage (3.5 leaves stage of paddy rice) and 5 leaves stage (7 leaves stage of paddy rice) of Echinochloa crus-galli var. oryzicola, the granule prepared according to Example 1 was applied. […] 30 Days after the treatment with the chemical, examination was made in the similar manner as Test Example 1 to obtain results as shown in Table 2.
(§8) In the table, as the comparative chemicals CPN, Benthiocarb, Molinate and Simetryne, those commercially available were used and the comparative chemicals A and B (as mentioned before) used were prepared according to the process for preparing the compound of this invention.

[6] = system: Echinochloa crus-galli var. oryzicola; assay: Test Example 4: field test in submerged directly seeded paddy field, Echinochloa crus-galli var. oryzicola; type: in vivo; conditions: Echinochloa crus-galli, 504 h; 300 g/10 are, emulsion, 2- to 3-leaf stage, 21 days after application; read-out: Inhibition (%) of E. crus-galli var. oryzicola
Experimental: as §4, §5, §6

[7] = system: Dopatrium junceum; assay: Test Example 5: Wagner pot test, herbicidal effect on Dopatrium junceum; type: in vivo
Experimental: as §1, §2, §3

[8] = system: Echinochloa crus-galli var. oryzicola; assay: Test Example 2: concrete pot test on killing effect, Echinochloa crus-galli var. oryzicola; type: in vivo; conditions: Echinochloa crus-galli, 720 h
Experimental: as §4, §7, §8

[9] = 300 g/10a, leaf age 3, 20 days after application
[10] = 600 g/10a, leaf age 3, 20 days after application
[11] = read-out: Inhibition (%) by treatment at 1-leaf stage of E. crus-galli var. oryzicola, paddy rice
[12] = read-out: Inhibition (%) by treatment at 5-leaf stage of E. crus-galli var. oryzicola, paddy rice
[13] = read-out: Inhibition (%) by treatment at 1-leaf stage of E. crus-galli var. oryzicola, E. crus-galli var. oryzicola
[14] = read-out: Inhibition (%) by treatment at 5-leaf stage of E. crus-galli var. oryzicola, E. crus-galli var. oryzicola

**Q.** What does the source list for `CCSC(=O)N1CCCCCC1` [Molinate, s-ethyl hexahydro-1H-azepine-1-carbothioate]?
**A.** Weed kill degree, Bulrush [1, 9]: 0 (less than 39); Weed kill degree, Bulrush ([1]; 300 g/10a, leaf age 3-5, 20 days after application): 1 (40-59); Weed kill degree, Bulrush [1, 10]: 5 (100); Weed kill degree, Bulrush ([1]; 600 g/10a, leaf age 3-5, 20 days after application): 2 (60-79); inhibition at 3000 g/ha [2]: 12%; Chemical injury on paddy rice ([3]; 300 g/10a, 3 tillers, 20 days after application): 0; Chemical injury on paddy rice [3, 9]: 0; Chemical injury on paddy rice ([3]; 600 g/10a, 3 tillers, 20 days after application): 0; Chemical injury on paddy rice [3, 10]: 0; Weed kill degree, Umbrella plant ([4]; 300 g/10a, leaf age 2 (first group of columns)): 1 (40-59); Weed kill degree, Umbrella plant ([4]; 300 g/10a, leaf age 2 (second group of columns)): 4 (90-99); Weed kill degree, Umbrella plant ([4]; 600 g/10a, leaf age 2 (first group of columns)): 1 (40-59); Weed kill degree, Umbrella plant ([4]; 600 g/10a, leaf age 2 (second group of columns)): 5 (100); inhibition at 1500 g/ha [5, 11]: 0%; inhibition at 3000 g/ha [5, 11]: 8%; inhibition at 9000 g/ha [5, 11]: 36%; inhibition at 1500 g/ha [5, 12]: 0%; inhibition at 3000 g/ha [5, 12]: 0%; inhibition at 9000 g/ha [5, 12]: 8%; inhibition at 3000 g/ha [6]: 83%; Weed kill degree, Dopatrium junceum ([7]; 300 g/10a, leaf age 2, 20 days after application): 2 (60-79); Weed kill degree, Dopatrium junceum [7, 9]: 4 (90-99); Weed kill degree, Dopatrium junceum ([7]; 600 g/10a, leaf age 2, 20 days after application): 5 (100); Weed kill degree, Dopatrium junceum [7, 10]: 5 (100); inhibition at 1500 g/ha [8, 13]: 86%; inhibition at 3000 g/ha [8, 13]: 100%; inhibition at 9000 g/ha [8, 13]: 100%; inhibition at 1500 g/ha [8, 14]: 0%; inhibition at 3000 g/ha [8, 14]: 13%; inhibition at 9000 g/ha [8, 14]: 31%
